Test results: US20120010404A1, “OXAZINE DYES WITH IMPROVED AQUEOUS SOLUBILITY” (SIGMA-ALDRICH CO., priority 2008, published 2012)

Experiment: Fluorescence quenching with tryptophan (steady-state, Stern-Volmer)
Assay type: physicochemical
Details: phosphate buffered solutions, pH = 8.0, 25° C.; in M-1 (unit assumed)
Method: FIG. 4 illustrates the fluorescence quenching by tryptophan. Shown is the fluorescence of Dye 3 in the absence and presence of various concentration of tryptophan (Trp) in phosphate buffer (pH 8) as a function of wavelength.
Steady-state fluorescence spectroscopy was performed for Dye 2, Dye 3, Dye 14, and Mr121 dye in presence of tryptophan at 25° C. in phosphate buffer.
For evaluating the quenching efficiency, the steady-state fluorescence quenching results were analyzed following the Stern-Volmer equation F0/F=1+KQ[Q], where Fo and F are the fluorescence intensities in the absence and presence of tryptophan and KQ is a static Stern-Volmer constant.

| Tryptophan Stern-Volmer static quenching constant, KQ | Structure (SMILES) |
| --- | --- |
| 320 ± 26 | CC1CC(C)(C)N(CCCS(=O)(=O)O)c2cc3c(cc21)N=c1cc2c(cc1O3)=[N+](CCCC(=O)O)C(C)(C)CC2CS(=O)(=O)[O-] (stereo not drawn) [Dye 3, sodium 3-(11-(3-carboxypropyl)-2,2,4,10,10-pentamethyl-8-(sulfonatomethyl)-2,3,4,8,9,10-hexahydro-1H-dipyrido[3,2-b:2′,3′-i]phenoxazin-11-ium-1-yl)propane-1-sulfonate] |
| 263 ± 24 | CC1(C)CC(CS(=O)(=O)[O-])c2cc3c(cc2=[N+]1CCCC(=O)O)Oc1cc2c(cc1N=3)CCCN2CCCS(=O)(=O)O (stereo not drawn) [Dye 2, sodium 3-(11-(3-carboxypropyl)-10,10-dimethyl-8-(sulfonatomethyl)-2,3,4,8,9,10-hexahydro-1H-dipyrido[3,2-b:2′,3′-i]phenoxazin-11-ium-1-yl)propane-1-sulfonate] |
| 269 ± 22 | CC1(C)CC(CS(=O)(=O)[O-])c2cc3c(cc2N1CCCS(=O)(=O)[O-])Oc1cc2c(cc1=N3)C(CS(=O)(=O)[O-])CC(C)(C)[N+]=2CCCC(=O)O.[Na+].[Na+] (stereo not drawn) [Dye 14, disodium (11-(3-carboxypropyl)-2,2,10,10-tetramethyl-1-(3-sulfonatopropyl)-2,3,4,8,9,10-hexahydro-1H-dipyrido[3,2-b:2′,3′-i]phenoxazine-11-ium-4,8-diyl)dimethanesulfonate] |
